Assay results from patent publication US10556890B2, “Heteroaryl compounds and methods of use thereof” (Sunovion Pharmaceuticals Inc., priority 2012, dated 2020).

Legend:
[1] = system: Sprague Dawley rats; assay: PCP-induced hyperactivity in rats; format: in vivo; parameters: key: −: No inhibition of PCP hyperactivity; +: Significant inhibition of PCP hyperactivity (P value < 0.05); conditions: vs. vehicle + PCP
Description: (§1) Anti-psychotic like activity of the compounds was evaluated […] using the PCP hyperactivity (in rats) and Pre-Pulse Inhibition (PPI; in mice) models of schizophrenia.
Animals: PCP Hyperactivity: Male Sprague Dawley rats from Harlan (Indianapolis, Ind.) were used in these studies. Upon receipt, rats were assigned unique identification numbers and were group housed with 3 rats per cage in polycarbonate cages with micro-isolator filter tops. All rats were examined, handled, and weighed prior to initiation of the study to assure adequate health and suitability. The rats were maintained at 12/12 light/dark cycle with lights on at 7:00 am EST. The room temperature was maintained between 20 and 23° C. with a relative humidity maintained around 50%. Chow and water were provided ad libitum for the duration of the study. For each test, animals were randomly assigned across treatment groups.
The test chambers were Plexiglas rectangular chambers (24×45 cm) that fit inside two steel frames (9.5×18 inches) and were fitted with two-dimensional 4×8 beam grids to monitor horizontal and vertical locomotor activity (Hamilton Kinder, San Diego, Calif.). The analysis was configured to divide the open field of the chamber into a center and a periphery zone. Distance traveled was measured from horizontal beam breaks as the rat traveled whereas rearing activity was measured from vertical beam breaks.
Rats were administered with vehicle, test compound, or risperidone (0.5-1 mg/kg; i.p) and placed in the test chambers for 30 min measurement of baseline activity. Rats were then injected with either water or PCP (2.5 mg/kg; s.c) and placed back in the test chambers for a 60-minute session. At the end of each test session the chambers were thoroughly cleaned.

[2] = system: C57Bl/6J mice; assay: Pre-pulse Inhibition (PPI) of startle in mice; format: in vivo; parameters: key: −: No change in PPI; +: Significant increase in PPI at one pre-pulse intensity (P value < 0.05); ++: Significant increase in PPI at two pre-pulse intensities (P value < 0.05); +++: Significant increase in PPI at three pre-pulse intensities (P value < 0.05); conditions: 30 min prior to PPI test, vs. vehicle
Description: as §1
Animals—PPI: Male C57Bl/6J mice from Jackson Laboratories (Bar Harbor, Me.) were used in these studies. Upon receipt, mice were assigned unique identification numbers (tail marked) and were group housed with 4 mice per cage in OptiMICE ventilated cages. All animals remained housed in groups of four during the remainder of the study. All mice were acclimated to the colony room for at least one week prior to testing. During the period of acclimation, mice were examined on a regular basis, handled, and weighed to assure adequate health and suitability. Animals were maintained on a 12/12 light/dark cycle. The room temperature was maintained between 20 and 23° C. with a relative humidity maintained between 30% and 70%. Chow and water were provided ad libitum for the duration of the study. In each test, animals were randomly assigned across treatment groups.
The acoustic startle is an unconditioned reflex response to an external auditory stimulus. Prepulse inhibition of startle (PPI) refers to the reduction in the startle response caused by the presentation of a low-intensity auditory stimulus prior to the startle stimulus. The PPI paradigm is used for the study of schizophrenia and antipsychotic action due to the similarities between the results from human and rodent studies. PPI has been used as a tool for the assessment of deficiencies in sensory-motor gating observed in schizophrenia and to screen for potential antipsychotic drugs. Various psychotomimetic drugs such as PCP can disrupt PPI. In mice, antipsychotic drugs such as clozapine can reverse the disruption of PPI induced by PCP.
Mice were placed in the PPI chambers (Med Associates) for a 5 min session of white noise (70 dB) habituation. After the habituation period the test session was initiated. The session started with a habituation block of 6 presentations of the startle stimulus alone, followed by 10 PPI blocks, each of which consisted of 6 different types of trials. Trial types were: ‘null’ (no stimuli), ‘startle’ (120 dB), ‘startle plus prepulse’ (4, 8 and 12 dB over background noise, i.e., 74, 78 or 82 dB) and ‘prepulse’ (82 dB). Trial types were presented in a random order within each block. Each trial started with a 50 ms stimulus-free period during which baseline movements were recorded. This was followed by a subsequent 20 ms period during which the prepulse stimulus was presented and responses to the prepulse measured. After a further 100 ms period, the startle stimulus was presented for 40 ms and responses recorded for 100 ms from startle onset. Responses were sampled every ms. The inter-trial interval was variable with an average of 15 s (range from 10 to 20 s). In ‘startle’ trials the basic auditory startle response was measured. The basic startle response was calculated as the mean startle response of all ‘startle’ trials (i.e., excluding the first habituation block). In ‘startle plus prepulse’ trials the degree of inhibition of the normal startle was calculated and expressed as a percentage of the basic startle response.
Mice were treated with vehicle, haloperidol (1 mg/kg; i.p) or test compound 30 min prior to PPI test. The PPI enclosures were cleaned following each test.

[3] = 3 mg/kg Compound + PCP (2.5 mg/kg s.c.)
[4] = 10 mg/kg Compound + PCP (2.5 mg/kg s.c.)
[5] = 30 mg/kg Compound + PCP (2.5 mg/kg s.c.)

With `Cc1c(C2C=CN=CN2)sc2ccccc12.Cl` (stereo not drawn) [Compound 20] the “Total Distance Traveled (cm), PCP-induced hyperactivity” value (“Total Distance Traveled (cm)” for short) [1, 3] was “+”, the “Total Distance Traveled (cm)” value [1, 4] was “−” and the “Total Distance Traveled (cm)” value [1, 5] was “+”. The “Effect on Pre-pulse Inhibition (PPI)” value ([2]; 3 mg/kg) was “−”, the “Effect on Pre-pulse Inhibition (PPI)” value ([2]; 10 mg/kg) was “−” and the “Effect on Pre-pulse Inhibition (PPI)” value ([2]; 30 mg/kg) was “−”.

In the case of `Cc1cc(C2C=CN=CN2)cs1.Cl` (stereo not drawn) [Compound 21], the “Total Distance Traveled (cm)” value [1, 4] is reported as “−”, the “Total Distance Traveled (cm)” value [1, 5] is reported as “−” and the “Total Distance Traveled (cm)” value ([1]; 100 mg/kg Compound + PCP (2.5 mg/kg s.c.)) is reported as “−”. The “Effect on Pre-pulse Inhibition (PPI)” value ([2]; 3 mg/kg) was “−”, the “Effect on Pre-pulse Inhibition (PPI)” value ([2]; 10 mg/kg) was “−” and the “Effect on Pre-pulse Inhibition (PPI)” value ([2]; 30 mg/kg) was “−”.

With `Fc1ccc2c(c1)N=CNC2c1c(F)sc2ccccc12` (stereo not drawn) [Compound 239] the “Total Distance Traveled (cm)” value [1, 3] was “+ (increase)”, the “Total Distance Traveled (cm)” value [1, 4] was “+ (increase)” and the “Total Distance Traveled (cm)” value [1, 5] was “+ (increase)”. For the same compound, the “Effect on Pre-pulse Inhibition (PPI)” value ([2]; 3 mg/kg) was “−”, the “Effect on Pre-pulse Inhibition (PPI)” value ([2]; 10 mg/kg) was “−” and the “Effect on Pre-pulse Inhibition (PPI)” value ([2]; 30 mg/kg) was “+++”.

With `Cc1sc2ccccc2c1C1C=CN=CN1` (stereo not drawn) [Compound 3] the “Total Distance Traveled (cm)” value [1, 3] was “−”, the “Total Distance Traveled (cm)” value [1, 4] was “+” and the “Total Distance Traveled (cm)” value [1, 5] was “+”. For the same compound, the “Effect on Pre-pulse Inhibition (PPI)” value ([2]; 3 mg/kg) was “+”, the “Effect on Pre-pulse Inhibition (PPI)” value ([2]; 10 mg/kg) was “+” and the “Effect on Pre-pulse Inhibition (PPI)” value ([2]; 30 mg/kg) was “+++”.

`Cl.Fc1sc2ccccc2c1C1C=CN=CN1` (stereo not drawn) [Compound 15] was tested, and the “Total Distance Traveled (cm)” value [1, 3] was “−”, the “Total Distance Traveled (cm)” value [1, 4] was “−” and the “Total Distance Traveled (cm)” value [1, 5] was “−”. The “Effect on Pre-pulse Inhibition (PPI)” value ([2]; 3 mg/kg) was “−”, the “Effect on Pre-pulse Inhibition (PPI)” value ([2]; 10 mg/kg) was “+” and the “Effect on Pre-pulse Inhibition (PPI)” value ([2]; 30 mg/kg) was “++”.
